The text below walks through data of publication PMC10614203, “Synthesis, Structure–Activity Relationships, Radiofluorination, and Biological Evaluation of [^18F]RM365, a Novel Radioligand for Imaging the Human Cannabinoid Receptor Type 2 (CB2R) in the Brain with PET” (Journal of Medicinal Chemistry, 2023).

For one assay, the target named is T1, hCB2R (Homo sapiens, UniProt P34972).
T1 construct: host or cells: CHO cells, stably transfected
Briefly: Homologous competition binding of [18F]RM365 / RM365 on membranes of hCB2R-CHO cells. The text has this:
(§1) To complement the indirect determination of the affinity of RM365 toward the CB2R in vitro, we performed a direct binding study with the radiofluorinated ligand using preparations of CHO cells stably transfected with the cloned human receptor and one spleen from a female SPRD rat expressing high levels of the receptor in the leukocytes.[12] The results of the homologous competition study shown in Figure 6 confirm the good affinity of [^18F]RM365 toward the human CB2R with a KD value of about 2 nM. […] Furthermore, the measurement signal obtained from the incubation of [^18F]RM365 with the homogenate of rat spleen was in the range of the values obtained for the nonspecific binding of the radioligand toward the preparation of CB2R-transfected CHO cells. We conclude that RM365 binds the rat CB2R with lower affinity than the human CB2R but expect no significant interactions of the radioligand with nonspecific binding sites.[82] […]
(§2) The nonspecific binding of the respective radioligand was determined by coincubation with CP55,940 (final concentration 10^–5 M). The normalized values of bound activity (% specific binding) were calculated and plotted vs the logarithm of the concentration of the respective test compound. […]

For a further assay, the target named is T2, rat CB2R (Rattus norvegicus, UniProt Q9QZN9).
T2 construct: one spleen from a female SPRD rat expressing high levels of the receptor in the leukocytes; from tissue; host or cells: rat spleen (female SPRD rat; autoradiography also described with male F433 rats)
T2 sequence (Q9QZN9 1-360): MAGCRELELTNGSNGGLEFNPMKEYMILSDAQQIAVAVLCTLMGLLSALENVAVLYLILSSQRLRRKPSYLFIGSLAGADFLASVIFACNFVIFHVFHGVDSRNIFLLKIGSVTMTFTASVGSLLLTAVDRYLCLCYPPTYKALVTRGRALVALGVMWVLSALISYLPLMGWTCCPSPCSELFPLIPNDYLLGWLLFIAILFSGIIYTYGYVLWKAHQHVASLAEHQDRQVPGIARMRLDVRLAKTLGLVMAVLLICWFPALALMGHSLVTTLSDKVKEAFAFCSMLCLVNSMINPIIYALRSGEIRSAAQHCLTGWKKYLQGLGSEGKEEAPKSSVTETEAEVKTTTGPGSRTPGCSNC
The assay can be described thus: Homologous competition binding of [18F]RM365 / RM365 on rat spleen homogenate.
Excerpt: as §1, §2

Values joined by “and” are separate entries in the source; they are usually repeats but may differ in a detail not shown here. Identical values can stand only once.

T1 sequence (P34972 whole entry): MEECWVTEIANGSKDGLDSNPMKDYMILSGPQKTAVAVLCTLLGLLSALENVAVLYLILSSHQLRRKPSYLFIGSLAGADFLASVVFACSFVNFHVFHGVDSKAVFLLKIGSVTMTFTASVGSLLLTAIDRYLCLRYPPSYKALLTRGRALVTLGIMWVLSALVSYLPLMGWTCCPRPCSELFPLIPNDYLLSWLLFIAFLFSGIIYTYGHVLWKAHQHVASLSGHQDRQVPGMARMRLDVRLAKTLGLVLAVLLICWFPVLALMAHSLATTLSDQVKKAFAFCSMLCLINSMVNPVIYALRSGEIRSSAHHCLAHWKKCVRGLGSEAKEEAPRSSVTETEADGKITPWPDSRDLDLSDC

Compound `CC1(C)Cc2ccc(C#N)cc2[C@@H]1NC(=O)c1cc2cc([18F])ccc2[nH]1` [[^18F]RM365] showed an IC50 on hCB2R (0.078 nM [18F]RM365, increasing concentrations of RM365) of 2.4 nM. For the same compound, the Kd at hCB2R (0.078 nM [18F]RM365, single experiment in triplicate, KD = IC50 - concentration radioligand) is 2.32 nM and ~2 nM; at rat CB2R (rat spleen homogenate, read-out: KD for the rCB2R) it was > 10000 nM. The “specific binding to rat spleen homogenates, in words” value on rat CB2R (spleen of a female SPRD rat) was “no detectable interaction”.
